Measured values as given in patent US7459447B2, “Method for treating hyperlipidemia” (Kowa Co., Ltd., priority 2004, dated 2008).

Tested on: Hartley male guinea pigs
Test: Blood cholesterol level lowering effect in guinea pigs, oral administration once a day for 14 days
Type: in vivo, guinea pig
Conditions: ezetimibe 3 mg/kg, oral once a day for 14 days, blood collected after 18 h fast; for Reduction ratio (%) of blood cholesterol level: vs control group
Method: The blood cholesterol level lowering effect when a calcium salt of pitavastatin and ezetimibe were coadministered was measured by the below-described testing method. For comparison, a calcium salt of atorvastatin was used instead of the calcium salt of pitavastatin and the effect brought about by the concomitant use of two medicaments was measured in a similar manner. • 1. Animals Provided for the Test and Their Breeding Environment
Six-week-old Hartley male guinea pigs (purchased from Nippon SLC) were provided for the test. Throughout the test period, they were bred in a breeding room maintained at a light-dark cycle (a light term by a room light: from 7:00 am to 7:00 pm), a temperature of 23 ±3° C. and a humidity of 55 ±15% and fed with a solid feedstuff (“RC-4”, product of Oriental Yeast Industry) and tap water ad libitum. • 2. Preparation of Medicament
Treatment method according to the invention: The calcium salt of pitavastatin and ezetimibe were suspended in a 0.5 wt. % aqueous solution of carboxymethylcellulose sodium (product of Iwai Chemicals Company) and their concentrations were adjusted to 1 mg/mL and 3 mg/mL, respectively. Since the calcium salt of pitavastatin contained 9.43 wt. % of water, 1.1 times the weight of the dosage was weighed for correction. The suspension was refrigerated (4° C.) in a light resistant bottle and adjustment was conducted every 7 days.
Treatment method for comparison: In a similar manner to that described above except the use of the calcium salt of atorvastatin instead of the calcium salt of pitavastatin, a medicament (atorvastatin calcium 5 mg/mL) for comparison test was prepared. • 3. Testing Method
The treatment method according to the present invention: Twenty four guinea pigs were classified into four groups (each consisting of 6 guinea pigs), that is, a control group, a single administration group of pitavastatin calcium salt (1 mg/kg), a single administration group of ezetimibe (3 mg/kg), and a coadministration group of pitavastatin calcium salt (1 mg/kg) and ezetimibe (3 mg/kg) so that they differ little in the total blood cholesterol level and blood triglyceride level. These two medicaments were each administered at a dose of 1 mL/kg once a day and this administration was repeated for 14 days. To the control group, a 0.5 wt. % aqueous solution (1 mL/kg) of carboxymethylcellulose sodium was orally administered. In each group, the guinea pigs were fasted for 18 hours after the final administration and then the blood was collected from them to measure the blood cholesterol level.
Treatment method for comparison: twenty four guinea pigs were tested in a similar manner to the method according to the invention. The dosage of the calcium salt of atorvastatin was 5 mg/kg in each of the group nourished by the single use of atorvastatin calcium salt and the group nourished by the concomitant use of atorvastatin calcium salt and ezetimibe. • 4. Static Analysis and Data Processing Method
Multigroup comparison between the control group and the medicament administered group was performed using Bartlett's variance analysis—Dunnett's multiple comparative assay. A difference with a significance level less than 5% was regarded as significant. • 5. Results
A reduction ratio (%) is a value represented by ((total blood cholesterol level of control group on average−total blood cholesterol level of each group on average)/(total blood cholesterol level of control group on average))×100, while a relative index is a value represented by (total blood cholesterol level of each group on average)/(total blood cholesterol level of control group on average).

[1] = Table 2 comparison test: atorvastatin Ca 5 mg/kg
[2] = Table 1 test: pitavastatin Ca 1 mg/kg

| SMILES | Relative index (total blood cholesterol level of group / control group) [1] | Reduction ratio (%) of blood cholesterol level [1] [%] | Relative index (total blood cholesterol level of group / control group) [2] | Reduction ratio (%) of blood cholesterol level [2] [%] |
| --- | --- | --- | --- | --- |
| CC(C)c1c(C(=O)Nc2ccccc2)c(-c2ccccc2)c(-c2ccc(F)cc2)n1CC[C@@H](O)C[C@@H](O)CC(=O)O [atorvastatin Ca] | 0.77 | 23 | – | – |
| O=C1[C@H](CC[C@H](O)c2ccc(F)cc2)[C@@H](c2ccc(O)cc2)N1c1ccc(F)cc1 [ezetimibe, (3R,4S)-1-(4-fluorophenyl)-3-[(3S)-3-(4-fluorophenyl)-3-hydroxypropyl]-4-(4-hydroxyphenyl)-2-azetidinone] | 0.81 | 19 | 0.79 | 21 |
| O=C(O)C[C@H](O)C[C@H](O)/C=C/c1c(C2CC2)nc2ccccc2c1-c1ccc(F)cc1 [pitavastatin Ca, (3R,5S,6E)-7-[2-cyclopropyl-4-(4-fluorophenyl)-3-quinolyl]-3,5-dihydroxy-6-heptenoic acid] | – | – | 0.71 | 29 |
